Reference: paper PMC12843137, “Fine-Tuning Side Chain Substitutions: Impacts on the Lipophilicity–Solubility–Permeability Interplay in Macrocyclic Peptides” (Marine Drugs, 2025)
Read-outs that look alike come from different tables or passages of the source.

Key:
PANC-1 cells = conditions: CCK-8; cited from earlier work
recombinant human eEF1A1 = target: T1, recombinant human eEF1A1 (Homo sapiens, UniProt P68104); assay: MicroScale Thermophoresis (MST) binding assay; conditions: for Kd: MST, 50 mM HEPES pH 7.4, 0.05% Tween-20, triplicate, mean ± SD
T1 construct: purchased TMPH-01283
T1 sequence (P68104 1-462): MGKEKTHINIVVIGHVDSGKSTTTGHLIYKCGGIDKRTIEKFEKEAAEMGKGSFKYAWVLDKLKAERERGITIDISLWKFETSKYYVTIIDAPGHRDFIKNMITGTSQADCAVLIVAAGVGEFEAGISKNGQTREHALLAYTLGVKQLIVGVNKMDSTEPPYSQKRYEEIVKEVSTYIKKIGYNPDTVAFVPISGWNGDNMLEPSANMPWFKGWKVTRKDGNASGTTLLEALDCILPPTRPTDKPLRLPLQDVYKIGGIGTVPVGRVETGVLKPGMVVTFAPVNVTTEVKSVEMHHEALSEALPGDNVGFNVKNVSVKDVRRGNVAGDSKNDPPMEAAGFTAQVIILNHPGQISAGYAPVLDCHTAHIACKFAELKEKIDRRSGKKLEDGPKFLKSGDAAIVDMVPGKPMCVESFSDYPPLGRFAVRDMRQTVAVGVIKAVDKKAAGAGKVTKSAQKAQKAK
From the text: To investigate whether the loss of cellular activity in the BE derivatives results from diminished binding to the known intracellular target eEF1A1, we assessed direct target engagement using MST. Recombinant human eEF1A1 protein was titrated against the compounds, which were supplied in HEPES buffer (pH 7.4) and diluted as required. Binding interactions were quantified by monitoring changes in thermophoretic mobility. Detailed materials and protein labeling procedures are provided in the Supporting Information.
Compounds were serially diluted (16-point, 2-fold) in assay buffer (50 mM HEPES, pH 7.4, 0.05% Tween-20) as ligands. Labeled eEF1A1 protein (target) was mixed 1:1 with each dilution and incubated at room temperature for 20 min. Samples were loaded into premium capillaries and analyzed on the Monolith X instrument following the manufacturer’s protocol, with infrared laser excitation at 1480 nm to generate a temperature gradient. Thermophoretic mobility was monitored via fluorescence changes before, during, and after laser activation.
Data were analyzed using NanoTemper Analysis software (version 2.3) to fit binding curves and determine dissociation constants (Kd). Experiments were performed in triplicate, and Kd values are reported as mean ± standard deviation.
The Lucifer Yellow fluorescence (to monitor monolayer integrity) signal is measured in a fluorescence plate reader at 485 nm excitation and 530 nm emission.
The leakage of Lucifer Yellow, in unit of percentage (%), can be calculated using the following equation:
%LY leakage = 100×[LY]acceptor/([LY]donor+[LY]acceptor)
Where [LY]acceptor is the fluorescence intensity in the acceptor well (0.3 mL), and [LY]donor is the fluorescence intensity in the donor well (0.1 mL) and expressed as % leakage. The percentage of Lucifer yellow leakage […]
should be less than 1.0%. […]
monolayers will be compared. […]
those in the replicate transwells (CV<30%), the monolayer's Papp data will be considered valid and […]
Supplementary Table S3. The assessment of caco-2 cell monolayer integrity. […]

PATU8988T cells = assay: CCK-8 antiproliferative assay, PATU8988T; assay type: cell-based; conditions: Homo sapiens, PaTu 8988t; CCK-8, 72 h, mean ± SEM (n = 3); read-out: Cell proliferation IC50 PATU8988T
Description: (§1) The inhibitory activities against human pancreatic cancer PANC-1 cells of the synthesized compounds were evaluated by CCK-8 assay.
(§2) Human pancreatic cancer cell lines PANC-1, PATU8988T and BxPC3 were purchased from the Cancer Institute & Hospital of the Chinese Academy of Medical Sciences (Shanghai, China). All three cell lines were cultured in RPMI-DMEM medium containing 10% fetal bovine serum, cultured at a constant temperature of 37 °C in a humidified incubator with 5% CO2.
(§3) Pancreatic cancer cells are seeded into 96-well plates. After a proliferation time of 16 h, different concentrations of compounds are added into the corresponding wells and incubated for 72 h. 10 μL of CCK-8 solution is added into each well and incubated for 1–4 h at 37 °C. Shake the plates and read the OD value of each well at 450 nm on a microplate reader.
(§4) 1. Characterization of biological activity
(§5) Supplementary Figure S1. Cell viability is assessed using the CCK -8 assay following 72 h treatment with the tested compounds in pancreatic cancer cell lines: a) PATU8988T, b) BxPC3.
(§6) Supplementary Table S1. The effects of compounds against two pancreatic cancer cell lines were evaluated using […]
(§7) Cell proliferation IC 50(µM)a
(§8) [a] IC50 va lues of the tested compounds ar e determined in PATU8988T an d BxPC3 cells. […]
(§9) Supplementary Figure S2. Convergence of the PMF calculated from WTM -eABF simulation . […]

BxPC3 cells = assay: CCK-8 antiproliferative assay, BxPC3; assay type: cell-based; conditions: Homo sapiens, BXPC-3, 72 h, CCK-8, 72 h, mean ± SEM (n = 3); read-out: Cell proliferation IC50 BxPC3
Description: as §1, §2, §3, §4, §5, §6, §7, §8, §9

Row | Compound | IC50 (PANC-1 cells) [µM] | Kd (recombinant human eEF1A1; read-out: Kd) [µM] | fold weaker affinity than the parent BE (recombinant human eEF1A1; ratio of MST Kd values) | IC50 (PATU8988T cells) [µM] | IC50 (BxPC3 cells) [µM] | Kd (recombinant human eEF1A1)
1 | CCCCCCCCCCCCCC1OC(=O)CN(C)C(=O)C=CC(CN2CCN(C)CC2)NC(=O)CNC(=O)C(C)(O)C(=O)C1C (centres unmarked) [BE-NMP] | 0.65 ± 0.19 |  |  |  |  | 
2 | CCCCOc1ccc(-c2ccc(-c3ccc(Cn4cc(CCCCC[C@H]5OC(=O)CN(C)C(=O)/C=C/[C@@H](CN6CCN(C)CC6)NC(=O)CNC(=O)[C@@](C)(O)C(=O)[C@H]5C)nn4)cc3)cc2)cc1 [Compound 29] |  | 7.82 ± 0.63 | approximately 3.4 fold | > 50 | > 50 | 
3 | CC1C(=O)C(C)(O)C(=O)NCC(=O)NC(CN2CCN(C)CC2)C=CC(=O)N(C)CC(=O)OC1CCCCc1cn(CCCCCCCCNC(=N)N)nn1 (centres unmarked) [Compound 31] |  |  |  | > 50 | > 100 | no detectable binding
